The results in this text go back to ChEMBL document CHEMBL3351350, “Inhibition of C-terminal truncated PPM1D enhances the effect of doxorubicin on cell viability in human colorectal carcinoma cell line” (2014).

Active and inactive are the calls of the source. The calls are words filed in the database; no cut-off is given here.

The nature of test [1]: Cytotoxicity against human HCT116 cells assessed as cell viability at 40 uM after 48 hrs by MTS assay. Format: functional. Conditions: HCT-116, 48 h, read-out: Activity.
Test [2] is described as follows: Cytotoxicity against human HCT116 cells assessed as cell viability at 40 uM after 48 hrs by MTS assay in presence of doxorubicin. In kind it is functional. Conditions: HCT-116, 48 h, read-out: Activity. (Formazan colour is commonly taken as a measure of viable cells.)
Test [3] relates to HCT-116. Briefly: Increase in C-terminal truncated PPM1D level in human HCT116 cells at 40 uM after 24 to 48 hrs by western blotting in presence of doxorubicin. Format: functional, cell-based. (In general: Immunoblotting shows a protein as a band on a membrane.)
For test [4], the target named is T1, Protein phosphatase 1D (Homo sapiens) (UniProt O15297).
T1 sequence (whole entry): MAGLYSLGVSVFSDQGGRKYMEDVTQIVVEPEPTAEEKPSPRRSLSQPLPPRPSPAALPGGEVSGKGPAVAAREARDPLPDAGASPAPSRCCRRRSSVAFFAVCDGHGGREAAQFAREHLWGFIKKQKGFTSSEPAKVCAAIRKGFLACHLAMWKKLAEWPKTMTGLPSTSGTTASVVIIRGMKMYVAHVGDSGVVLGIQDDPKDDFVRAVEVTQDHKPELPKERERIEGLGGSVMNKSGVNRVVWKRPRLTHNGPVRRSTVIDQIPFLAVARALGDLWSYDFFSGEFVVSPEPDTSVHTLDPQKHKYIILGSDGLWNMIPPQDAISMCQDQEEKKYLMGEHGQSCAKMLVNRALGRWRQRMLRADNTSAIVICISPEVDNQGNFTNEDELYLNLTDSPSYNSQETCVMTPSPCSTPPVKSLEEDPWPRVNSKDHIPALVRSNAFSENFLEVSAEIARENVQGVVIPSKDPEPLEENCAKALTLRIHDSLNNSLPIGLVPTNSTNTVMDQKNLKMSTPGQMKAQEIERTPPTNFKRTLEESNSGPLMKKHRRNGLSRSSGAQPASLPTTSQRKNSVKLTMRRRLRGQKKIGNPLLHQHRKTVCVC
As to the kind of experiment: Inhibition of C-terminal truncated PPM1D in human HCT116 cells assessed as increase in p21 level at 40 uM after 24 to 48 hrs by western blotting in presence of doxorubicin. Format: cell-based. As to conditions: HCT-116.

In test [5] the target is T1, Protein phosphatase 1D (Homo sapiens). Briefly: Inhibition of C-terminal truncated PPM1D in human HCT116 cells assessed as increase in Ser15 phosphorylated p53 level at 40 uM after 24 to 48 hrs by western blotting in presence of doxorubicin. Format: cell-based. As to conditions: HCT-116.
In test [6] the test system is A549. Briefly: Cytotoxicity against human A549 cells assessed as cell viability at 2 uM after 48 hrs by MTS assay. In kind it is functional. Conditions: A549, 48 h, read-out: Activity.
Test [7] deals with A549. Briefly: Cytotoxicity against human A549 cells assessed as inhibition of cell viability after 48 hrs by MTS assay. Format: functional, cell-based.
In test [8] the target is T1, Protein phosphatase 1D (Homo sapiens). As to the kind of experiment: Inhibition of C-terminal truncated PPM1D in human HCT116 cells assessed as increase in p21 level at 2 uM after 24 to 48 hrs by western blotting. Format: cell-based. Conditions: HCT-116.
Test [9] is described as follows: Cytotoxicity against human HCT116 cells assessed as cell viability at 2 uM after 48 hrs by MTS assay. Format: functional. Conditions: HCT-116, 48 h, read-out: Activity.
Test [10] concerns HCT-116. Briefly: Cytotoxicity against human HCT116 cells assessed as inhibition of cell viability after 48 hrs by MTS assay. In kind it is functional, cell-based.
Test [11] addresses T1, Protein phosphatase 1D (Homo sapiens). As to the kind of experiment: Inhibition of C-terminal truncated PPM1D in human HCT116 cells assessed as increase in Ser15 phosphorylated p53 level at 2 uM after 24 to 48 hrs by western blotting. In kind it is cell-based. Conditions: HCT-116.

With `CC[Si](CC)(CC)O[C@@H]1C[C@H](C)C[C@@H]2[C@@H]1C[C@H](O[Si](C)(C)C(C)(C)C)[C@@H]1[C@](C)(CO)C[C@H](O)C[C@@]21C`, the values for the viability at 40 µM in test [1] and in test [2] were 94.2% and 26.3%, respectively. For the same compound, in the test with HCT-116 [3], the outcome was Active. In addition, the inhibition result in test [4] and in [5] was “Active” throughout.
With `COc1cccc2c1C(=O)c1c(O)c3c(c(O)c1C2=O)C[C@@](O)(C(=O)CO)C[C@@H]3O[C@H]1C[C@H](N)[C@H](O)[C@H](C)O1` [DOXORUBICIN], the values for the viability at 2 µM (with A549 [6]; in test [9]) were 5% and 40.7%, respectively. Moreover, the inhibition result in the test on A549 [7] and in the test on HCT-116 [10] was “Dose-dependent effect” throughout. In addition, the inhibition result in test [8] and in test [11] was “Active” throughout.
